{
  "source": "paper PMC4317581",
  "about": "“Virtual Screening of Acetylcholinesterase Inhibitors Using the Lipinski's Rule of Five and ZINC Databank” (BioMed Research International, 2015)",
  "format_in_all_cases": "biochemical",
  "key": {"[1]": {"biological_target": "AChE from Electrophorus electricus (EeAChE) (Electrophorus electricus, UniProt O42275)", "sequence (O42275 24-633)": "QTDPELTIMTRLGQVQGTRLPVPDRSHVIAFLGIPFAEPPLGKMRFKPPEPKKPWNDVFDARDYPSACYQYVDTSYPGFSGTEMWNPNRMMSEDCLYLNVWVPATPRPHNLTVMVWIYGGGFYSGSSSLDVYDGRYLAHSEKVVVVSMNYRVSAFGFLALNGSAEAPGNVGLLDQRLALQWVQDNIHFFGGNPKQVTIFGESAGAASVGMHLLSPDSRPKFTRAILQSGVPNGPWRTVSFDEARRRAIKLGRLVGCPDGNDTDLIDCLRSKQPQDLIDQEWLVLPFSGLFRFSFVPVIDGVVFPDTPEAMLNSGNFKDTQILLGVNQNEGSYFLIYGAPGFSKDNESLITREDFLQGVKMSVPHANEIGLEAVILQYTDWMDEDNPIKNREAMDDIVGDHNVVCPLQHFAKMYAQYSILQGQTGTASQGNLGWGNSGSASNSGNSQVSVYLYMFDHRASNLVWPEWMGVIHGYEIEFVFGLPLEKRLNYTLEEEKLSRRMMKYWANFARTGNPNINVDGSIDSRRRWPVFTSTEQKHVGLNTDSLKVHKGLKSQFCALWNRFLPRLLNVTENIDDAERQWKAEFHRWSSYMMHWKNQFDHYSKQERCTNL", "assay": "Ellman cholinesterase assay, purified AChE from Electrophorus electricus", "method": "(§1) The compounds selected as inhibitors of AChE activity were obtained commercially from MolPort (http://www.molport.com/buy-chemicals/index). They were dissolved in dimethyl sulfoxide (DMSO), at a final concentration of 0.1%.\n(§2) The cholinesterase activities were measured based on Ellman et al.'s method. The increase of absorbance was monitored at 412 nm in a reaction mixture containing 10 mM potassium phosphate buffer, pH 7.4, and 1 mM DTNB [5,5′-dithiobis-(2-nitrobenzoic) acid] (from Sigma) in the presence of one of the following enzymes: purified AChE from Electrophorus electricus (EeAChE)—0.05 U/ml, AChE from human erythrocytes (HsAChE), AChE from Danio rerio (DrAChE)—0.5 μg, and purified BChE from Equus ferus (EfBChE)—0.05 U/mL. The compounds (or only 0.1% DMSO for the control group) were preincubated with the enzyme during 10 minutes at room temperature, and the reaction was started with the addition of acetylthiocholine or butyrylthiocholine (0.8 mM).\n(§3) The IC50 values were determined by nonlinear regression (log concentration-inhibition curves). Data were analyzed by one-way analysis of variance (ANOVA) followed by Student-Newman-Keuls test. Statistical significance was set at P < 0.05. The statistics have been performed using GraphPad Prism 5 (version 5.01, GraphPad Software, Inc., USA)."}, "[2]": {"biological_target": "T1, AChE from Danio rerio (DrAChE) (Danio rerio, UniProt Q9DDE3)", "T1 construct": "zebrafish brains were homogenized on ice in 60 volumes (v/w) of Tris-citrate buffer; from tissue; host or cells: zebrafish brain homogenate", "T1 sequence (Q9DDE3 24-634)": "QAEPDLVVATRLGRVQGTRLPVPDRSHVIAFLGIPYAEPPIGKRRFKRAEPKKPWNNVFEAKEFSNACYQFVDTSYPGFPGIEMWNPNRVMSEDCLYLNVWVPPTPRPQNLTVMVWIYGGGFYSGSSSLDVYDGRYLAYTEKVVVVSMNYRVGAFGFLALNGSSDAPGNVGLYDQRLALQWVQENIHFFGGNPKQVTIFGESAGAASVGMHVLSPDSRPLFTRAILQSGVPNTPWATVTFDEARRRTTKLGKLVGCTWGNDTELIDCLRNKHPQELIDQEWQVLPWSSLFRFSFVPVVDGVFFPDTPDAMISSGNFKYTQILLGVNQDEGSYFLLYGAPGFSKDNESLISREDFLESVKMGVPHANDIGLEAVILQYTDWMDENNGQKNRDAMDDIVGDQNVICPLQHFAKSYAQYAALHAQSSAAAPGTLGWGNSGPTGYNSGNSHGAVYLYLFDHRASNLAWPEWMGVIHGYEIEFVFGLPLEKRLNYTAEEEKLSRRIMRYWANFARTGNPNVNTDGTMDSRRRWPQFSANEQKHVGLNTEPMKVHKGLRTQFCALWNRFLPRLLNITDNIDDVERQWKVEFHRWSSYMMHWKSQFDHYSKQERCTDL", "assay": "Ellman cholinesterase assay, zebrafish brain homogenate AChE", "method": "as §1, §2\nThe DrAChE assay was performed as previously described by Rosemberg et al. (2010). Briefly, zebrafish brains were homogenized on ice in 60 volumes (v/w) of Tris-citrate buffer (50 mM Tris, 2 mM EDTA, 2 mM EGTA, and pH 7.4, with citric acid) using a Potter-Elvehjem-type glass homogenizer. Samples (0.5 μg protein) were preincubated for 10 min at 25°C and the enzyme activity was further assessed in the absence and the presence of the selected compounds.\nas §3"}, "[3]": {"biological_target": "T2, AChE from human erythrocytes (HsAChE) (Homo sapiens, UniProt P22303)", "T2 construct": "from tissue; host or cells: human erythrocyte ghosts from blood of healthy donors", "T2 sequence (P22303 other isoform, or with tags, fused parts or gaps)": "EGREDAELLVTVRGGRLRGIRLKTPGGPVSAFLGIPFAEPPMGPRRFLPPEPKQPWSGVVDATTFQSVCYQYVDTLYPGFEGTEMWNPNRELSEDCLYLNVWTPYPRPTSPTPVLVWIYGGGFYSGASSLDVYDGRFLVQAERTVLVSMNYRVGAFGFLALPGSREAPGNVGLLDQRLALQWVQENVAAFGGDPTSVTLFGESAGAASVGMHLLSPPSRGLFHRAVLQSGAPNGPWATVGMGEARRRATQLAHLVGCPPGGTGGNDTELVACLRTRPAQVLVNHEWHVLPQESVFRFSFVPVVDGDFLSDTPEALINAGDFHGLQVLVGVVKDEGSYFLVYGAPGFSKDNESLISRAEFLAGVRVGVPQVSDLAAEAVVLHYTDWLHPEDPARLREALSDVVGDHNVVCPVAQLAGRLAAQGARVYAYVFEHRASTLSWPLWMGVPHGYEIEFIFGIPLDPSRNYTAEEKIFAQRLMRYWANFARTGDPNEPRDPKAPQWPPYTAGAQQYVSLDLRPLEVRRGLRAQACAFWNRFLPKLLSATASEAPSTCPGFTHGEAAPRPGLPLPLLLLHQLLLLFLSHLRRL", "assay": "Ellman cholinesterase assay, human erythrocyte ghost AChE", "method": "as §1, §2\nHaemoglobin-free erythrocyte ghosts were prepared according to the method previously described. Blood of nonfasted healthy voluntary donors was collected. Heparinized human blood was centrifuged at 3000 g for 10 min. The packed erythrocytes were diluted in 20 volumes (w/v) of hypotonic sodium/potassium phosphate buffer (6.7 mM, pH 7.4) to facilitate the hemolysis, followed by centrifugation at 30.000 g for 30 min at 4°C. The supernatant was removed and the pellet resuspended in hypotonic phosphate buffer. After two additional washing cycles, the pellet was resuspended in sodium/potassium phosphate buffer (0.1 M, pH 7.4) and then centrifuged again at 30.000 g for 30 min at 4°C. The supernatant was gently removed and the pellet was stored. Aliquots of the erythrocyte ghosts were stored at −20°C until usage within one week. The sample was diluted 10 times for AChE activity measurement. Fifty μL of the stored ghost preparation, in a final volume of 200 μL, was used for the assay. Hemoglobin content from ghost membranes was measured at 540 nm as the cyano-met-Hb form, but no hemoglobin was detected.\nas §3"}, "[4]": {"biological_target": "BChE from Equus ferus (EfBChE) (Equus caballus, UniProt P81908)", "sequence (P81908 whole entry)": "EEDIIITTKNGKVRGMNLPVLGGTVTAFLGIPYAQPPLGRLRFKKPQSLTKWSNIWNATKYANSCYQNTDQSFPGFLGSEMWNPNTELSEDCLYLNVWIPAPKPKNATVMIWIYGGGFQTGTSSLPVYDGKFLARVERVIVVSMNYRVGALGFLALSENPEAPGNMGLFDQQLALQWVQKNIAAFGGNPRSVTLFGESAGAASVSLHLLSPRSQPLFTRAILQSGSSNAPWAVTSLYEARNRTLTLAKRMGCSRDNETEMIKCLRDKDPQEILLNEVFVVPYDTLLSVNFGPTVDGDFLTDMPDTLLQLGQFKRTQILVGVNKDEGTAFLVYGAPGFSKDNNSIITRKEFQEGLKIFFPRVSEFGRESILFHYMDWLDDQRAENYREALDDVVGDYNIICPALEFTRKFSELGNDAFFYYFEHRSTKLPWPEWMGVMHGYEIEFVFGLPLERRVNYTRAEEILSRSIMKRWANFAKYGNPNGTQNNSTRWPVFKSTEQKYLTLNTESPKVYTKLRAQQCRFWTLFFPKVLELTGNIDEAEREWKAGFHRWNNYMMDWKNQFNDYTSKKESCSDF", "assay": "Ellman cholinesterase assay, purified BChE from Equus ferus", "method": "as §1, §2, §3"}, "[5]": {"conditions": "purified EeAChE 0.05 U/ml, 10 min preincubation, acetylthiocholine 0.8 mM, read-out: IC50 EeAChE"}, "[6]": {"conditions": "zebrafish brain homogenate 0.5 μg protein, 10 min preincubation, read-out: IC50 DrAChE"}, "[7]": {"conditions": "human erythrocyte ghosts, 10 min preincubation, read-out: IC50 HsAChE"}, "[8]": {"conditions": "purified BChE 0.05 U/mL, 10 min preincubation, butyrylthiocholine 0.8 mM, read-out: IC50 EcBChE"}},
  "note": "Where two headings read alike, the source gives them in different places.",
  "data": [
    {"smiles": "O=c1ccc2ccc(OCC[N+]34CCC(CC3)C(C(O)(c3ccccc3)c3ccccc3)C4)cc2o1", "note": "(stereo not shown) [A]", "values": [
      {"measurement": "IC50", "setting": "[1]", "value": "36.3 ± 3.14", "unit": "µM"},
      {"measurement": "IC50", "setting": "[2]", "value": "26.2 ± 3.98", "unit": "µM"},
      {"measurement": "IC50", "setting": "[3]", "value": "13.2 ± 1.38", "unit": "µM"},
      {"measurement": "IC50", "setting": "[4]", "value": "22.2 ± 1.06", "unit": "µM"}
    ]},
    {"smiles": "COc1c2c(cc3c1[C@H](CC(=O)c1cc4c(cc1C)C(C)(C)[C@@H](C)C4(C)C)[N+](C)(C)CC3)OCO2", "note": "[B]", "values": [
      {"measurement": "IC50", "setting": "[1]; [5]", "value": "578 ± 84.3", "unit": "µM"},
      {"measurement": "IC50", "setting": "[2]; [6]", "value": "21.2 ± 1.44", "unit": "µM"},
      {"measurement": "IC50", "setting": "[3]; [7]", "value": "37.5 ± 1.97", "unit": "µM"},
      {"measurement": "IC50", "setting": "[4]; [8]", "value": "4.02 ± 0.78", "unit": "µM"}
    ]},
    {"smiles": "CCCC[N+]1(CC#CC2(O)c3ccccc3-c3ccccc32)CCC(c2ccccc2)C1", "note": "(stereo not shown) [C]", "values": [
      {"measurement": "IC50", "setting": "[1]; [5]", "value": "761 ± 128", "unit": "µM"},
      {"measurement": "IC50", "setting": "[2]; [6]", "value": "239 ± 2.95", "unit": "µM"},
      {"measurement": "IC50", "setting": "[3]; [7]", "value": "92.1 ± 39.7", "unit": "µM"},
      {"measurement": "IC50", "setting": "[4]; [8]", "value": "0.75 ± 0.18", "unit": "µM"}
    ]},
    {"smiles": "C[N+]1(Cc2ccc(-c3nnc(-c4ccc([N+](=O)[O-])cc4)o3)cc2)CCc2[nH]c3ccccc3c2C1", "note": "(stereo not shown) [Compound D]", "values": [
      {"measurement": "IC50", "setting": "[1]; [5]", "value": "5.39 ± 0.55", "unit": "µM"},
      {"measurement": "IC50", "setting": "[2]; [6]", "value": "2.31 ± 0.29", "unit": "µM"},
      {"measurement": "IC50", "setting": "[3]; [7]", "value": "1.69 ± 0.46", "unit": "µM"},
      {"measurement": "IC50", "setting": "[4]; [8]", "value": "5.64 ± 2.47", "unit": "µM"}
    ]},
    {"smiles": "c1ccc(-c2c3c(cc4ccccc24)C[N+]2(CCCC2)C3)cc1", "note": "[Compound E]", "values": [
      {"measurement": "IC50", "setting": "[1]; [5]", "value": "342 ± 54.6", "unit": "µM"},
      {"measurement": "IC50", "setting": "[2]; [6]", "value": "26.4 ± 5.3", "unit": "µM"},
      {"measurement": "IC50", "setting": "[3]; [7]", "value": "512 ± 301", "unit": "µM"},
      {"measurement": "IC50", "setting": "[4]; [8]", "value": "12.7 ± 7.66", "unit": "µM"}
    ]},
    {"smiles": "C[N+]1(C)CCC2(CC1)Oc1ccccc1C1CC(c3ccc(-c4ccccc4)cc3)=NN12", "note": "(stereo not shown) [F]", "values": [
      {"measurement": "IC50", "setting": "[1]", "value": "84.2 ± 6", "unit": "µM"},
      {"measurement": "IC50", "setting": "[2]", "value": "192 ± 29.8", "unit": "µM"},
      {"measurement": "IC50", "setting": "[3]", "value": "151 ± 61.7", "unit": "µM"},
      {"measurement": "IC50", "setting": "[4]", "value": "32.9 ± 3.88", "unit": "µM"}
    ]},
    {"smiles": "C[N+]1(C)CCC2(CC1)Oc1ccccc1C1CC(c3ccc4ccccc4c3)=NN12", "note": "(stereo not shown) [G]", "values": [
      {"measurement": "IC50", "setting": "[1]", "value": "344 ± 50.7", "unit": "µM"},
      {"measurement": "IC50", "setting": "[2]", "value": "49.8 ± 15.3", "unit": "µM"},
      {"measurement": "IC50", "setting": "[3]", "value": "70 ± 7.96", "unit": "µM"},
      {"measurement": "IC50", "setting": "[4]", "value": "9.51 ± 6.94", "unit": "µM"}
    ]}
  ]
}
